Data as given in patent US8673908B2, “Kynurenine production inhibitor” (Kyowa Hakko Kirin Co., Ltd., priority 2008, dated 2014).

Test system: kynurenine production in IFN-γ-treated KATO-III cells
Assay: Inhibitory activity on kynurenine production (Test Example 1)
Assay type: cell-based
Conditions: Homo sapiens, IFN-γ treatment, culture for 96 hours, read-out: IC50 value, inhibition of kynurenine production
Description: This assay was performed according to a method modified from the method described in the Journal of Biological Chemistry (J. Biol. Chem.), vol. 263, pp. 2041-2048 (1988). Culture of KATO-III derived from human gastric cancer cells was performed by use of RPMI 1640 (GIBCO, 11875) supplemented with 10 vol % FBS (GIBCO, 10091-148, lot. 665285). 1 μL of a DMSO solution of the test substance was diluted with 199 μL of the culture medium, and the diluted solution was added to wells of a 384 well plate (10 μL/well). Then, IFN-γ (Sigma, 1-3265) was added to the culture medium so that the concentration of IFN-γ was 31.25 ng/mL, and the KATO-III cells were suspended at 50,000 cells/ml, in the culture medium. 40 μL of the suspension was added to each well (2,000 cells/well), and culture of the KATO-III cells was performed at 37° C. under a 5% CO2 atmosphere for 96 hours. The final concentration of DMSO was limited to 0.1 vol % or less so that DMSO itself might not affect the kynurenine concentration measured by this assay. After the culture, 10 μL of a 30 w/v % aqueous trichloroacetic acid solution was added to each well, and incubation was performed at 65° C. for 30 minutes. The plate was centrifuged at 2,500×g for 5 minutes, and then 15 μL of the supernatant in each well was transferred into another 384 well plate. To each of the transferred supernatants, 15 μL of a 2 w/v % solution of p-dimethylaminobenzaldehyde in acetic acid was added, incubation was performed at 65° C. for 20 minutes, and then the absorbance at 480 nm was measured.
[formula] Sample: the absorbance value of the well to which a DMSO solution containing the test substance was added and in which cells were treated with IFN-γ. Blank: the absorbance value of the well to which only DMSO, not the test substance was added and in which cells were treated with IFN-γ. Control: the absorbance value of the well to which only DMSO, not the test substance was added and in which cells were not treated with IFN-γ.
In this assay, expression of IDO in KATO-III cells is induced by IFN-γ treatment and then kynurenine in the culture medium is quantified. It is known that the kynurenine concentration in a culture medium increases in proportion to the enzymatic activity of intracellular IDO (for example, the Journal of Biological Chemistry (J. Biol. Chem.), vol. 263, pp. 2041-2048 (1988)). […] It is known that kynurenine production is inhibited by IDO inhibitors (for example, the Journal of Clinical Investigation (J. Clin. Invest.), vol. 117, No. 5, pp. 1147-1154 […]), and thus it is expected that Compound (I) also has an inhibitory effect on IDO.

Structure (SMILES)	IC50 [nM]
COc1ccc(COc2nc(Cl)cnc2NS(=O)(=O)c2cccc(Cl)c2Cl)cc1 [Compound 2]	1000 to 10000
COc1ccc(COc2nc3cccnc3nc2NS(=O)(=O)c2cccc(Cl)c2Cl)cc1 [Compound 5]	1000 to 10000
CCC(Oc1nc2ccccc2nc1NS(=O)(=O)c1cccc(Cl)c1Cl)c1cccnc1 (stereo not drawn) [Compound 31, 2,3-dichloro-N-{3-[1-(pyridin-3-yl)propoxy]quinoxalin-2-yl}benzenesulfonamide]	< 1000
CC(C)C(Oc1nc2ccccc2nc1NS(=O)(=O)c1cccc(Cl)c1Cl)c1cccnc1 (stereo not drawn) [Compound 34, 2,3-dichloro-N-{3-[2-methyl-1-(pyridin-3-yl)propoxy]-quinoxalin-2-yl}benzenesulfonamide]	< 1000
O=S(=O)(Nc1nc2ccccc2nc1OC(c1ccc(C(F)(F)F)cc1)C(F)(F)F)c1ccccc1C(F)(F)F (stereo not drawn) [Compound 35, 2-(trifluoromethyl)-N-{3-[2,2,2-trifluoro-1-(4-trifluoromethylphenyl)ethoxy]quinoxalin-2-yl}benzenesulfonamide]	< 1000
O=S(=O)(Nc1nc2ccccc2nc1OC(c1ccc(C(F)(F)F)cc1)C(F)(F)F)c1cccc(Cl)c1Cl (stereo not drawn) [Compound 36, 2,3-dichloro-N-{3-[2,2,2-trifluoro-1-(4-trifluoromethyl-phenyl)ethoxy]quinoxalin-2-yl}benzenesulfonamide]	< 1000
CC(C)(C)C(Oc1nc2ccccc2nc1NS(=O)(=O)c1cccc(Cl)c1Cl)c1cccnc1 (stereo not drawn) [Compound 37, 2,3-dichloro-N-{3-[2,2-dimethyl-1-(pyridin-3-yl)propoxy]-quinoxalin-2-yl}benzenesulfonamide]	< 1000
CC(C)(F)C(Oc1nc2ccccc2nc1NS(=O)(=O)c1cccc(Cl)c1Cl)c1cccnc1 (stereo not drawn) [Compound 39, 2,3-dichloro-N-{3-[2-fluoro-2-methyl-1-(pyridin-3-yl)-propoxy]quinoxalin-2-yl}benzenesulfonamide]	< 1000
COc1ccc(C(Oc2nc3ccccc3nc2NS(=O)(=O)c2ccccc2Cl)C(F)(F)F)cc1 (stereo not drawn) [Compound 40, 2-chloro-N-{3-[2,2,2-trifluoro-1-(4-methoxyphenyl)ethoxy]-quinoxalin-2-yl}benzenesulfonamide]	< 1000
Cc1ccc(C(Oc2nc3ccccc3nc2NS(=O)(=O)c2ccccc2Cl)C(F)(F)F)cn1 (stereo not drawn) [Compound 41, 2-chloro-N-{3-[2,2,2-trifluoro-1-(6-methylpyridin-3-yl)-ethoxy]quinoxalin-2-yl}benzenesulfonamide]	< 1000
N#Cc1ccc(C(Oc2nc3ccccc3nc2NS(=O)(=O)c2ccccc2Cl)C(F)(F)F)cc1 (stereo not drawn) [Compound 42, 2-chloro-N-{3-[2,2,2-trifluoro-1-(4-cyanophenyl)ethoxy]-quinoxalin-2-yl}benzenesulfonamide]	< 1000
COC(=O)C(Oc1nc2ccccc2nc1NS(=O)(=O)c1cccc(Cl)c1Cl)c1ccc(C(F)(F)F)cc1 (stereo not drawn) [Compound 43, 2,3-dichloro-N-{3-{methoxycarbonyl[4-(trifluoromethyl)-phenyl]methoxy}quinoxalin-2-yl}benzenesulfonamide]	< 1000
O=S(=O)(Nc1nc2ccccc2nc1OC(c1ccccc1)C(F)(F)F)c1ccccc1Cl (stereo not drawn) [Compound 44, 2-chloro-N-[3-(2,2,2-trifluoro-1-phenylethoxy)quinoxalin-2-yl]benzenesulfonamide]	< 1000

The next lines start with the values.

IC50 [nM]	Structure (SMILES)
1000 to 10000	O=S(=O)(Nc1ncc(Cl)nc1OCc1ccc2ccccc2c1)c1cccc(Cl)c1Cl [Compound 3]
1000 to 10000	O=S(=O)(Nc1nc2ccccc2nc1OCc1cccnc1)c1cccc(Cl)c1Cl [Compound 6, 2,3-dichloro-N-{3-[(pyridin-3-yl)methoxy]quinoxalin-2-yl}-benzenesulfonamide]
< 1000	O=S(=O)(Nc1nc2ccccc2nc1OCc1ccc2ccccc2c1)c1cccc(Cl)c1Cl [Compound 10, 2,3-dichloro-N-{3-[(2-naphthyl)methoxy]quinoxalin-2-yl}-benzenesulfonamide]
< 1000	O=S(=O)(Nc1nc2ccccc2nc1OCc1ccc2ccccc2c1)c1cccc2ccccc12 [Compound 11, N-{3-[(2-naphthyl)methoxy]quinoxalin-2-yl}-1-naphthalenesulfonamide]
1000 to 10000	Cc1ccc(S(=O)(=O)Nc2nc3ccccc3nc2OCc2ccc3ccccc3c2)cc1 [Compound 13, N-{3-[(2-naphthyl)methoxy]quinoxalin-2-yl}-4-toluenesulfonamide]
< 1000	O=S(=O)(Nc1nc2ccccc2nc1OCc1ccc2ccccc2c1)c1cc(Cl)cc(Cl)c1 [Compound 15, 3,5-dichloro-N-{3-[(2-naphthyl)methoxy]quinoxalin-2-yl}-benzenesulfonamide]
< 1000	O=S(=O)(Nc1nc2ccccc2nc1OCc1cccc(C(F)(F)F)c1)c1cccc(Cl)c1Cl [Compound 18, 2,3-dichloro-N-{3-[(3-trifluoromethylphenyl)methoxy]-quinoxalin-2-yl}benzenesulfonamide]
< 1000	O=S(=O)(Nc1nc2ccccc2nc1OCc1ccc2ccccc2c1)c1ccccc1C(F)(F)F [Compound 21, 2-(trifluoromethyl)-N-{3-[(2-naphthyl)methoxy]quinoxalin-2-yl}benzenesulfonamide]
< 1000	O=S(=O)(Nc1nc2ccccc2nc1OCc1ccc2ccccc2c1)c1cccc(C(F)(F)F)c1 [Compound 22, 3-(trifluoromethyl)-N-{3-[(2-naphthyl)methoxy]quinoxalin-2-yl}benzenesulfonamide]
< 1000	O=S(=O)(Nc1nc2ccccc2nc1OCc1ccc2ccccc2c1)c1ccc(C(F)(F)F)cc1 [Compound 23, 4-(trifluoromethyl)-N-{3-[(2-naphthyl)methoxy]quinoxalin-2-yl}benzenesulfonamide]
< 1000	O=S(=O)(Nc1nc2ccccc2nc1OCc1ccc2ncccc2c1)c1cccc(Cl)c1Cl [Compound 24, 2,3-dichloro-N-{3-[(quinolin-6-yl)methoxy]quinoxalin-2-yl}-benzenesulfonamide]
1000 to 10000	O=S(=O)(Nc1nc2ccccc2nc1OCc1ccncc1)c1cccc(Cl)c1Cl [Compound 26, 2,3-dichloro-N-{3-[(pyridin-4-yl)methoxy]quinoxalin-2-yl}-benzenesulfonamide]
< 1000	O=S(=O)(Nc1nc2ccccc2nc1OCc1ccc2ccccc2c1)c1c(Cl)cccc1Cl [Compound 27, 2,6-dichloro-N-{3-[(2-naphthyl)methoxy]quinoxalin-2-yl}-benzenesulfonamide]
< 1000	O=S(=O)(Nc1nc2ccccc2nc1OCc1ccc2ccccc2c1)c1cc(Cl)ccc1Cl [Compound 28, 2,5-dichloro-N-{3-[(2-naphthyl)methoxy]quinoxalin-2-yl}-benzenesulfonamide]
< 1000	O=S(=O)(Nc1nc2ccccc2nc1OCc1ccc2ccccc2c1)c1ccc(Cl)cc1Cl [Compound 29, 2,4-dichloro-N-{3-[(2-naphthyl)methoxy]quinoxalin-2-yl}-benzenesulfonamide]
1000 to 10000	O=S(=O)(Nc1nc2ccccc2nc1OCc1ccc2ccccc2c1)c1ccc(Cl)c(Cl)c1 [Compound 30, 3,4-dichloro-N-{3-[(2-naphthyl)methoxy]quinoxalin-2-yl}-benzenesulfonamide]
1000 to 10000	O=S(=O)(Nc1nc2ccccc2nc1OCc1ccccc1)c1cccc(Cl)c1Cl [Compound 32, 2,3-dichloro-N-(3-benzyloxyquinoxalin-2-yl)benzenesulfonamide]
